Measured values taken from patent US20200239398A1, “METHYLENE-CYCLOALKYLACETATE DERIVATIVES AND THEIR USE IN TREATMENT OF NEUROTROPIC CONDITIONS” (Yissum Research Development Company of The Hebrew …, priority 2018, published 2020).
Read-outs that look alike come from different tables or passages of the source.

Key:
[1] = biological target: T1, N-methyl-D-aspartate (NMDA) Glutamate Receptor 1A/2B (NMDAR (1A/2B)) (Homo sapiens, UniProt Q05586+Q13224); test: SAFETYscan NMDAR (1A/2B) Ion channel; assay type: cell-based; settings: Blocker mode; 10 μM HU-MCA-13; read-out: Maximal Response
T1 construct: DiscoverX (SAFETYscan contract panel)

[2] = biological target: Histamine Receptor H1 (HRH1) (Homo sapiens, UniProt P35367); test: SAFETYscan HRH1 Calcium Flux; assay type: cell-based; settings: 10 μM HU-MCA-13, read-out: Maximal Response
hERG (Kv11.1) = biological target: T2, hERG (Kv11.1) (Homo sapiens, UniProt Q12809); test: in vitro; assay type: cell-based; settings: Blocker mode, 10 μM HU-MCA-13, read-out: Maximal Response
T2 construct: DiscoverX (SAFETYscan contract panel)

[3] = biological target: Arginine Vasopressin Receptor 1A (AVPR1A) (Homo sapiens, UniProt P37288); test: SAFETYscan AVPR1A Calcium Flux; assay type: cell-based; settings: 10 μM HU-MCA-13, read-out: Maximal Response
male C57BL/6 mice [4] = test: Blood analysis 24 hours after injection; assay type: in vivo
Protocol: Tail vein blood samples were taken from DMSO 1% treated control (n=3) and HU-MCA-13-injected mice (n=4) after 24 hours from injection and submitted for hematocrit cell counting and biochemical analysis. Blood analyses are depicted in FIG. 4. No difference in any assay (blood count, electrolytes, coagulation parameters) was noted between the DMSO and HU-MCA-13-injected mice. Of special importance are normal liver (ALP, AST, ALT) functions and normal kidney (creatinine and blood urea nitrogen) functions, indicating sufficient organ integrity at the end of the experimental period.

[5] = biological target: Cholecystokinin Receptor A (CCKAR) (Homo sapiens, UniProt P32238); test: SAFETYscan CCKAR Calcium Flux; assay type: cell-based; settings: 10 μM HU-MCA-13, read-out: Maximal Response
[6] = biological target: Dopamine Receptor D1 (DRD1) (Homo sapiens, UniProt P21728); test: SAFETYscan DRD1 cAMP; assay type: cell-based; settings: 10 μM HU-MCA-13
[7] = biological target: Cannabinoid Receptor 1 (CNR1) (Homo sapiens, UniProt P21554); test: SAFETYscan CNR1 cAMP; assay type: cell-based; settings: 10 μM HU-MCA-13; for Emax: read-out: Maximal Response
male C57BL/6 mice [8] = test: Acute tolerance in mice, single iv dose; assay type: in vivo
Protocol: (§1) This pilot study was conducted to obtain acute information of the dose toxicity of HU-MCA-13 (Compound 13 in Scheme 1) in male mice. Male C57BL/6 mice, were injected intravenously with 0.2 ml of HU-MCA-13 in a dose of 250 mg/kg. Mice were monitored for 4 consecutive weeks for autonomic and neurotoxicity symptoms. The mortality and changes on body weight, clinical signs, gross observation, were monitored up to 30 days after treatment. No mortality was found at this high dose of 250 mg/kg. […] The mice were examined once a week for autonomic symptoms by measuring salivation, urinary delivery, pupillary constriction, heart rate, blood pressure, and hair contraction. […] Occurrences of either flaccid or spastic paralysis of the legs were not observed. […] Furthermore, no mice sudden deaths occurred within 24 hours after the injection or during the 4 weeks of observation. […] Sensory motor tests were scored individually and according to the modified neurologic function severity score (mNSS). The data from each individual test and the total score calculated from individual tests that make up the mNSS were measured. The following assays were used: a. beam balance test—mice were placed on a 1-inch wide beam for 60 seconds. A normal response is balance with steady posture for 60 seconds (a score of 0). Deficits are scored if the rat: grasps the side of the beam (a score of 1), hugs the beam and one limb falls down from the beam (a score of 2), hugs the beam and two limbs fall off the beam (a score of 3), attempts to balance on the beam, but falls off from 60 seconds (a score of 4), attempts to balance on the beam but falls off from […], or falls off with no attempt to balance or hang on the beam in <20 seconds (a score of 6); b. foot fault test—forelimb movement dysfunction, while walking on elevated metal grids, was monitored. The animal was placed on horizontal grids (85.5×26.5×20) cm with a glass enclosure for observation. With each weight bearing step, the forelimb can fall or slip between the metal support bars, an event recorded as a foot fault. The total number of forelimb steps and the total number of foot faults were recorded. The percentage of forelimb foot faults to the total steps that occurred within 2 minutes marks the test results; c. hind limb placing test—This test monitors reposition of hind limbs placed down and away from the table edge. The ability to retrieve and place the hind limbs back onto the table was scored. Immediate and complete limb retrieval was scored 0, delayed (>2 seconds) limb retrieval and/or interspersed flailing was scored 1, and no limb retrieval was scored 2; d. Increasing platform angle to slide test—This test monitors the strength and stability of resistance to slide down an inclined platform. It deploys a clean wooden board (60 cm by 40 cm) positioned horizontally. Mice were placed on the board with head facing up the increasing incline. The board then swings to increase the degree of inclination the rat experiences until slipping down the board feet first. The degree of the angle at which the rat relinquishes their grip/stance on the board (slips down) constitute the test results; e. the forelimb whole body suspension test—The test measures grip strength by duration of suspension by forepaws. The rat is suspended on a metal bar (diameter 5 mm) which it tightly holds onto by its forelimbs. The time (seconds) during which each rat could sustain its body weight while holding onto the bar is recorded. The mice drop from the bar onto soft material with no harm. The test was repeated three times and a mean result per rat was used as the score. Cumulatively these sensory motor/neurological findings indicate acute tolerability of 250 mg/kg HU-MCA-13 iv injection in Male C57BL/6 mice.

[9] = Acute tolerance in mice, single iv dose; assay type: in vivo; settings: C57BL/6, mouse, in vivo; male mice; predicted from the 250 mg/kg iv study; read-out: LD50 after single dose
Protocol: as §1

[10] = biological target: Histamine Receptor H2 (HRH2) (Homo sapiens, UniProt P25021); test: SAFETYscan HRH2 cAMP; assay type: cell-based; settings: 10 μM HU-MCA-13; for Emax: read-out: Maximal Response
[11] = 250 mg/kg iv, same for 1% DMSO group

Cannabinoid Receptor 1 (CNR1), sequence (P21554 whole entry): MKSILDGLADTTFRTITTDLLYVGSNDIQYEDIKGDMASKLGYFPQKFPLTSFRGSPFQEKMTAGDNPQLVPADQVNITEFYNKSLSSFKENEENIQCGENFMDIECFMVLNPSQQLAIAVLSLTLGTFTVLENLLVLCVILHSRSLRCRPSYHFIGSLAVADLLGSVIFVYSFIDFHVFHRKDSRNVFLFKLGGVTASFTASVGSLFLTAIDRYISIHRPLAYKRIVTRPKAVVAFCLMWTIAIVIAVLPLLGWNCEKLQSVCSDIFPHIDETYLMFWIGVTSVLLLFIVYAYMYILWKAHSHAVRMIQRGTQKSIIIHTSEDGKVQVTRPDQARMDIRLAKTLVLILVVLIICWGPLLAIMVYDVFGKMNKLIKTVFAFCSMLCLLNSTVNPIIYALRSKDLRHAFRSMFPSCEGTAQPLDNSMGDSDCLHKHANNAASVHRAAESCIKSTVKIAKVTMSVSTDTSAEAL
Histamine Receptor H2 (HRH2), sequence (P25021 whole entry): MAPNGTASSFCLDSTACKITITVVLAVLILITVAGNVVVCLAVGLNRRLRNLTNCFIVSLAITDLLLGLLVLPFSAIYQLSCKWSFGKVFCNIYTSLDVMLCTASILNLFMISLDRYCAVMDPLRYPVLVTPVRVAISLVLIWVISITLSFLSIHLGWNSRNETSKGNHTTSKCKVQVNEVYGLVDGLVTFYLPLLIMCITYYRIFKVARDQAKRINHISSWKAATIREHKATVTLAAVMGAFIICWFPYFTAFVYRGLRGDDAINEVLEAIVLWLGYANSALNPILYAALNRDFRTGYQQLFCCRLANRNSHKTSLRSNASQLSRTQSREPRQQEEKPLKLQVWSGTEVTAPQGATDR
Histamine Receptor H1 (HRH1), sequence (P35367 whole entry): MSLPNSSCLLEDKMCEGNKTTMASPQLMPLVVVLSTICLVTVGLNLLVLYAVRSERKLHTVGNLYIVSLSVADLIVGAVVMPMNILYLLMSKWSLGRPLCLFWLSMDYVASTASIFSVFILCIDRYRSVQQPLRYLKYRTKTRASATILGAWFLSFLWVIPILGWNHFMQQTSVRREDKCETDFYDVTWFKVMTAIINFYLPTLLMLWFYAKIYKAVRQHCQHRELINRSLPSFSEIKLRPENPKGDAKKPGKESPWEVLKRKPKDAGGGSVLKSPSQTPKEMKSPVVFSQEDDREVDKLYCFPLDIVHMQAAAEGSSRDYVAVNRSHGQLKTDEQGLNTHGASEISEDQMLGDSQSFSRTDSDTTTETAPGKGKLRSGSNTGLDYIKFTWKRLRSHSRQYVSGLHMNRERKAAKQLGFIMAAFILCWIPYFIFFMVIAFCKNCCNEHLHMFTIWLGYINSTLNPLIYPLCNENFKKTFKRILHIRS
Cholecystokinin Receptor A (CCKAR), sequence (P32238 whole entry): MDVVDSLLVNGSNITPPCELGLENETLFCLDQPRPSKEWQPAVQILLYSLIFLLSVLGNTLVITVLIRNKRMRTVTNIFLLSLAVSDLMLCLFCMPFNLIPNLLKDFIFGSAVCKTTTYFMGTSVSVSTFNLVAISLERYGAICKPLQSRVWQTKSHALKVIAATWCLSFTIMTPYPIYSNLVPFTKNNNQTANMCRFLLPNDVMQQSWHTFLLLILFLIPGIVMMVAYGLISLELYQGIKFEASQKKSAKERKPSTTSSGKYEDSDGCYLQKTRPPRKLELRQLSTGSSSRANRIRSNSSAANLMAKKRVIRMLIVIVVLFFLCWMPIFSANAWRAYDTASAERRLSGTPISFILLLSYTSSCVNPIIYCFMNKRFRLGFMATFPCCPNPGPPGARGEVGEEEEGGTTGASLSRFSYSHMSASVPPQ
Arginine Vasopressin Receptor 1A (AVPR1A), sequence (P37288 whole entry): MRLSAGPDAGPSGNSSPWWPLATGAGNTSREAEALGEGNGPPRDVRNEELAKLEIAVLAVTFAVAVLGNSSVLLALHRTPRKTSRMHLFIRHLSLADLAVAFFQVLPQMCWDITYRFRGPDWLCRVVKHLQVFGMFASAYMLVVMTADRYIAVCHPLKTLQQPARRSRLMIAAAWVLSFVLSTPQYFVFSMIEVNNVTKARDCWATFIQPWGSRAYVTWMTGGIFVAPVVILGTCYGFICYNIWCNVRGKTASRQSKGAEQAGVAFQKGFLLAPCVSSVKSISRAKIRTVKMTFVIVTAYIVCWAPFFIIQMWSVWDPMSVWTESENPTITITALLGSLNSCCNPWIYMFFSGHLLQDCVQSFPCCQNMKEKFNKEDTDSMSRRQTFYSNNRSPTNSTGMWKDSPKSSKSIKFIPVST
Dopamine Receptor D1 (DRD1), sequence (P21728 whole entry): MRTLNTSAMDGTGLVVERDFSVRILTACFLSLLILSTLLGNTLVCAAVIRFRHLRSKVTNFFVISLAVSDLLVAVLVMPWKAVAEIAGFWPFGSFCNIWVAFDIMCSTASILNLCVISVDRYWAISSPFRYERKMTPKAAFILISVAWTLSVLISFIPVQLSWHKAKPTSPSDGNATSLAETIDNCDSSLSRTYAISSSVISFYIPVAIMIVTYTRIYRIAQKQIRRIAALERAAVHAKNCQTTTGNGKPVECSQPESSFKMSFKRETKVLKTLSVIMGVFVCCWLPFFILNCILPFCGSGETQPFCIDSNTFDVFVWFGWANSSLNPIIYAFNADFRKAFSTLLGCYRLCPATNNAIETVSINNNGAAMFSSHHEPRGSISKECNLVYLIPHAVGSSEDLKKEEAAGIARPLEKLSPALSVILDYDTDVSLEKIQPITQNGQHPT
T2 sequence (Q12809 whole entry): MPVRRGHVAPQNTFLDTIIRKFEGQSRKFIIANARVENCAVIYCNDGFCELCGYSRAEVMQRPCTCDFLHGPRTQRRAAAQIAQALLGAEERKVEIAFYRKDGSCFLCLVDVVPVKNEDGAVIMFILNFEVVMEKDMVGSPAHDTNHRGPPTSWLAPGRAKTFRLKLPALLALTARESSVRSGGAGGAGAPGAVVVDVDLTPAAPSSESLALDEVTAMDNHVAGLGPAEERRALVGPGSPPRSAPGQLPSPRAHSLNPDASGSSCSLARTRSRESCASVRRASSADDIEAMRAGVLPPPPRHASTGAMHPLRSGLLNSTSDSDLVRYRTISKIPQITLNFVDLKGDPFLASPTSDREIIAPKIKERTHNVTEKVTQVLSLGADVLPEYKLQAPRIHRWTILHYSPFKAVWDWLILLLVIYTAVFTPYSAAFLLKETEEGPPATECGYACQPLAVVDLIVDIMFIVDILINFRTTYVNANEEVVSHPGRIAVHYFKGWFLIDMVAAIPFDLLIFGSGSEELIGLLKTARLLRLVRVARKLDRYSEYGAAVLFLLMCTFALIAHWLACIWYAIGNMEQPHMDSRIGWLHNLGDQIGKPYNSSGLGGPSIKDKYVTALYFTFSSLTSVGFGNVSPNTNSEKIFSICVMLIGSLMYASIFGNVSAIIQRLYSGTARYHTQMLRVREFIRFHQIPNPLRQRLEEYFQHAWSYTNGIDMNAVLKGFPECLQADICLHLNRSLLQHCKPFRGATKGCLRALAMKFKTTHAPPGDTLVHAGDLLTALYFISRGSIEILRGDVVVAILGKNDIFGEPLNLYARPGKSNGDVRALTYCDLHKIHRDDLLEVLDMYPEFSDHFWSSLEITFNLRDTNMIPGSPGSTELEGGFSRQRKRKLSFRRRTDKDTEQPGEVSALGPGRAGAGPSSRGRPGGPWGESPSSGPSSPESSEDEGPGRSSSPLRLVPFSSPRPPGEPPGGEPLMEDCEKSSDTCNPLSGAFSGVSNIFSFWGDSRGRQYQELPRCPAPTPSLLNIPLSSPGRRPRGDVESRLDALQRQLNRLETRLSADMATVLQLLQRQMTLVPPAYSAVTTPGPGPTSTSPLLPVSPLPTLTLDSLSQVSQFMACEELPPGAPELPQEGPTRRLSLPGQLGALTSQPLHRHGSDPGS

C=CCC1CCC[C@@H](CCC(=O)O)C1=C (stereo partly shown) [Compound 13]
Emax [1]: 0%
Emax ([2]; Agonist mode): 0%
Emax ([2]; Antagonist mode): 1.05%
Emax at 10 μM (hERG (Kv11.1)): 0%
Emax ([3]; Agonist mode): 0.29%
Emax ([3]; Antagonist mode): 0%
kidney (creatinine and blood urea nitrogen) functions (male C57BL/6 mice [4]; 24 hours after 250 mg/kg iv): normal
liver (ALP, AST, ALT) functions (male C57BL/6 mice [4]; 24 hours after 250 mg/kg iv): normal
bilirubin concentration (male C57BL/6 mice [4]; in both control and HU-MCA-13-injected mice): some fluctuation
blood count, electrolytes, coagulation parameters (male C57BL/6 mice [4]; vs DMSO 1% control, 24 hours after 250 mg/kg iv): No difference
Emax ([5]; Agonist mode): 1.56%
Emax ([5]; Antagonist mode): 0%
Emax ([6]; read-out: Maximal Response, Agonist mode): 0%
Emax ([6]; read-out: Maximal Response, Antagonist mode): 14.3%
Maximal Response ([7]; Agonist mode): 50.22%
Emax ([7]; Agonist mode): 50.1%
Emax ([7]; Antagonist mode): 0.57%
neurotoxicity signs (paralysis, motor activity, behavior) (male C57BL/6 mice [8]; 250 mg/kg iv): No paralysis, altered motor activity, or irregular behavior was observed
mortality (male C57BL/6 mice [8]; 250 mg/kg iv single dose, up to 30 days): No mortality
autonomic symptoms (salivation, urinary delivery, pupillary constriction, heart rate, blood pressure, hair contraction) (male C57BL/6 mice [8]; 250 mg/kg iv vs 1% DMSO): no differences were observed
changes on body weight (male C57BL/6 mice [8]; 250 mg/kg iv vs 1% DMSO treated group): No significant changes
body weight at end (male C57BL/6 mice [8]; [11]): 27 gram
body weight at start (male C57BL/6 mice [8]; [11]): 21 gram
cutaneous hematomas around the injection site or at distant locations (male C57BL/6 mice [8]; within 24 hours after injection, 250 mg/kg iv): have not been observed
LD50 at 30 days [9]: > 2000 mg/kg
Emax ([10]; Agonist mode): 1.78%
Maximal Response ([10]; Antagonist mode): 26.94%
Emax ([10]; Antagonist mode): 26.9%
